From patent US20200407717A1, “METHODS OF MODULATING ANTISENSE ACTIVITY” (Ionis Pharmaceuticals, Inc., priority 2018, published 2020)
In the oligonucleotide strings, read from the 5' end, every base follows the letter of its sugar. An asterisk marks phosphorothioate; unmarked linkages are phosphodiester. Other units and linkages are bracketed, terminal groups are in braces. A string of capitals states the bases alone. e = 2'-O-(2-methoxyethyl) (MOE); {FITC} = fluorescein label; [5mC] = 5-methylcytosine; d = 2'-deoxy (DNA)

Tests used:
Purified recombinant EGF [1] = biological target: T1, Purified recombinant EGF (Homo sapiens, UniProt P01133); experiment: Membrane binding assay, EGF
T1 construct: purchased ThermoFisher PHG0311L
Description: (§1) A membrane binding assay was performed to test the binding affinities of modified oligonucleotides to EGF and EGFR. Purified recombinant EGF (PHG0311L, ThermoFisher) or EGFR protein (PV3872, ThermoFisher) were incubated with FITC-labeled phosphorothioate oligonucleotide, compound no. 256903 or FITC-labeled phosphate oligonucleotide, PO-ASO, in binding buffer (20 mM Tris-HCl, pH 7.5, 150 mM NaCl, 1 mM DTT, 10% glycerol) for 1 hr at 37° C. Each reaction contained purified EGF at 3 nM to 3 μM or recombinant EGFR at 5 nM to 150 nM. Samples were loaded onto a hyband ECL nitrocellulose membrane (GE Healthcare) and soaked in wash buffer (20 mM Tris-HcCl, pH 7.5, 250 mM NaCl). Protein-bound ASOs were transferred to the membrane by applying a vaccum in a 96-well Bio-Rad Bio-Dot apparatus. After washing, membranes were air-dried and scanned using a phoshoimager (GE Healthcare). Kds were calculated for compound no. 256903 using Prism. The results below represent an average of three replicate experiments. […] In contrast, compound no. 256903 bound to both EGF and EGFR, with a higher affinity for EGFR than for EGF.

Purified recombinant EGF [2] = biological target: T1, Purified recombinant EGF; experiment: Membrane binding assay, EGF; settings: [EGF] 2.5 nM
EGFR [3] = biological target: T2, EGFR (Homo sapiens, UniProt P00533); experiment: Membrane binding assay, EGFR; design: purchased ThermoFisher PV3872
Description: as §1

EGFR [4] = biological target: T2, EGFR; experiment: Membrane binding assay, EGFR; design: purchased ThermoFisher PV3872; settings: EGFR 2.3 nM (head prints [EGF])

T1 sequence (P01133 971-1023 limits assumed): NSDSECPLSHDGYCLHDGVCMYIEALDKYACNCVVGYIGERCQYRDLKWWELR

FITC-^mCesTesGes^mCesTesAdsGds^mCds^mCdsTds^mCdsTdsGdsGdsAdsTesTesTesGesAe (antisense {FITC}-e[5mC]*eT*eG*e[5mC]*eT*dA*dG*d[5mC]*d[5mC]*dT*d[5mC]*dT*dG*dG*dA*eT*eT*eT*eG*eA) [compound 256903]
interaction with EGF (Purified recombinant EGF [1]; EGF 3 nM to 3 μM): bound
Relative intensity (%) (Purified recombinant EGF [1]; [EGF] 5 nM): 10.2%
Relative intensity (%) (Purified recombinant EGF [1]; [EGF] 10 nM): 12.0%
Relative intensity (%) (Purified recombinant EGF [1]; [EGF] 20.9 nM): 12.8%
Relative intensity (%) (Purified recombinant EGF [1]; [EGF] 41.9 nM): 13.7%
Relative intensity (%) (Purified recombinant EGF [1]; [EGF] 93.8 nM): 15.7%
Relative intensity (%) (Purified recombinant EGF [1]; [EGF] 187.5 nM): 17.0%
Relative intensity (%) (Purified recombinant EGF [1]; [EGF] 375 nM): 22.3%
Relative intensity (%) (Purified recombinant EGF [1]; [EGF] 750 nM): 72.3%
Relative intensity (%) (Purified recombinant EGF [1]; [EGF] 1500 nM): 95.2%
Relative intensity (%) (Purified recombinant EGF [1]; [EGF] 3000 nM): 97.3%
Kd (Purified recombinant EGF [1]; binding affinity for EGF, average of three replicate experiments): 570 ± 170 nM
Relative intensity (%) (Purified recombinant EGF [2]): 8.8%
Relative intensity (%) (EGFR [3]; EGFR 4.7 nM (head prints [EGF])): 9.0%
interaction with EGFR (EGFR [3]; EGFR 5 nM to 150 nM): bound
Relative intensity (%) (EGFR [3]; EGFR 9.4 nM (head prints [EGF])): 9.0%
Relative intensity (%) (EGFR [3]; EGFR 18.8 nM (head prints [EGF])): 10.3%
Relative intensity (%) (EGFR [3]; EGFR 37.5 nM (head prints [EGF])): 40.5%
Relative intensity (%) (EGFR [3]; EGFR 75 nM (head prints [EGF])): 80.0%
Relative intensity (%) (EGFR [3]; EGFR 150 nM (head prints [EGF])): 102.7%
Kd (EGFR [3]; binding affinity for EGFR, average of three replicate experiments): 51.5 ± 9.3 nM
Relative intensity (%) (EGFR [4]): 7.0%
